In article PMC6364417, “Kinase inhibitor library screening identifies synergistic drug combinations effective in sensitive and resistant melanoma cells” (Journal of Experimental & Clinical Cancer Research : CR, 2019):

Assays:
Experiment in all cases: Kinase inhibitor library screening, PrestoBlue cell viability, 1 or 10 μM, 72 h
[1] = test system: 501Mel-GP cells (Dabrafenib-resistant); settings: 72 h
A375 cells (parental) = settings: for cell viability, A375 Parental, 10μΜ / cell viability, A375 Parental, 1μΜ: in %
[2] = test system: IGR37-XP cells (Vemurafenib-resistant)
501Mel cells (parental) = settings: 72 h
Procedure, shortened: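 Normalised to untreated controls, viability percentages came from PrestoBlue measured on a microplate reader following 72 h incubation with drug. Each line was assayed at least twice.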

[3] = test system: A375-XP cells (Vemurafenib-resistant); settings: for cell viability, A375 XP, 1μΜ / cell viability, A375 XP, 10μΜ: in %
[4] = test system: A375-GP cells (Dabrafenib-resistant); settings: for cell viability, A375 GP, 1μΜ / cell viability, A375 GP, 10μΜ: in %
[5] = test system: 501Mel-XP cells (Vemurafenib-resistant); settings: 72 h
[6] = test system: IGR37-GP cells (Dabrafenib-resistant); settings: for cell viability, IGR37 GP, 1μΜ: in %
IGR37 cells (parental) = test system: IGR37 cells (parental)
[7] = IGR37 Parental, 1μΜ, 72 h, in %
[8] = IGR37 Parental, 10μΜ, 72 h, in %

Compound | cell viability, 501Mel GP, 1μΜ ([1]; 501Mel GP, 1μΜ, in %) | cell viability, 501Mel GP, 10μΜ ([1]; 501Mel GP, 10μΜ, in %) | cell viability, A375 Parental, 10μΜ (A375 cells (parental); A375 Parental, 10μΜ, 72 h) | cell viability, IGR37 XP, 10μΜ ([2]; IGR37 XP, 10μΜ, 72 h) [%] | cell viability, IGR37 XP, 1μΜ ([2]; IGR37 XP, 1μΜ, 72 h, in %) | cell viability, 501Mel Parental, 1μΜ (501Mel cells (parental); 501Mel Parental, 1μΜ, in %) | cell viability, 501Mel Parental, 10μΜ (501Mel cells (parental); 501Mel Parental, 10μΜ, in %) | cell viability, A375 XP, 1μΜ ([3]; A375 XP, 1μΜ, 72 h) | cell viability, A375 XP, 10μΜ ([3]; A375 XP, 10μΜ, 72 h) | cell viability, A375 GP, 1μΜ ([4]; A375 GP, 1μΜ, 72 h) | cell viability, A375 GP, 10μΜ ([4]; A375 GP, 10μΜ, 72 h) | cell viability, 501Mel XP, 1μΜ ([5]; 501Mel XP, 1μΜ, in %) | cell viability, 501Mel XP, 10μΜ ([5]; 501Mel XP, 10μΜ, in %) | cell viability, IGR37 GP, 10μΜ ([6]; IGR37 GP, 10μΜ, 72 h) [%] | cell viability, IGR37 GP, 1μΜ ([6]; IGR37 GP, 72 h) | cell viability, IGR37 Parental, 1μΜ (IGR37 cells (parental); [7]) | cell viability, IGR37 Parental, 10μΜ (IGR37 cells (parental); [8]) | cell viability, A375 Parental, 1μΜ (A375 cells (parental); A375 Parental, 1μΜ, 72 h) | further results
COc1cc2ncnc(Nc3cccc(Cl)c3)c2cc1OC [AG-1478 (Tyrphostin AG-1478)] | 102.7 | 55.4 | 94.0 | 46.3 | 76.6 | 96.5 | 70.7 | 99.5 | 98.9 | 91.6 | 90.4 | 86.2 | 48.5 | 86.3 | 88.5 | 96.0 | 98.8 |  | 
CC(O)C(=O)O.CC(O)C(=O)O.CN1CCN(c2ccc3nc(-c4c(N)c5c(F)cccc5[nH]c4=O)[nH]c3c2)CC1 | 100.0 | 0.0395 | 48.0 | 33 | 106.9 | 106.3 | 0.756 |  | 59.2 | 91.8 | 46.4 | 91.1 | -0.0481 | 46.5 | 106.1 | 105.9 | 76.1 | 106.9 | 
CN(C)Cc1cccc(N/C(=C2\C(=O)Nc3cc(C(N)=O)ccc32)c2ccccc2)c1 [BIX 02188] |  |  |  |  |  |  |  |  |  |  |  |  |  |  |  |  |  |  | viability at 1 µM ([1]; Homo sapiens, read-out: cell viability, 501Mel GP, 1μΜ): 104%; viability at 10 µM ([1]; Homo sapiens, read-out: cell viability, 501Mel GP, 10μΜ): 96.3%; viability at 1 µM (A375 cells (parental); Homo sapiens, A-375, 72 h, read-out: cell viability, A375 Parental, 1μΜ): 103%; viability at 10 µM (A375 cells (parental); Homo sapiens, A-375, 72 h, read-out: cell viability, A375 Parental, 10μΜ): 95.5%; viability at 1 µM ([2]; Homo sapiens, IGR-37, 72 h, read-out: cell viability, IGR37 XP, 1μΜ): 107%; viability at 10 µM ([2]; Homo sapiens, IGR-37, 72 h, read-out: cell viability, IGR37 XP, 10μΜ): 71.5%; viability at 1 µM (501Mel cells (parental); Homo sapiens, read-out: cell viability, 501Mel Parental, 1μΜ): 95.5%; viability at 10 µM (501Mel cells (parental); Homo sapiens, read-out: cell viability, 501Mel Parental, 10μΜ): 91.7%; viability at 1 µM ([3]; Homo sapiens, A-375, 72 h, read-out: cell viability, A375 XP, 1μΜ): 103%; viability at 10 µM ([3]; Homo sapiens, A-375, 72 h, read-out: cell viability, A375 XP, 10μΜ): 98.5%; viability at 1 µM ([4]; Homo sapiens, A-375, 72 h, read-out: cell viability, A375 GP, 1μΜ): 103%; viability at 10 µM ([4]; Homo sapiens, A-375, 72 h, read-out: cell viability, A375 GP, 10μΜ): 85.4%; viability at 1 µM ([5]; Homo sapiens, read-out: cell viability, 501Mel XP, 1μΜ): 96.7%; viability at 10 µM ([5]; Homo sapiens, read-out: cell viability, 501Mel XP, 10μΜ): 86.6%; viability at 1 µM ([6]; Homo sapiens, IGR-37, 72 h, read-out: cell viability, IGR37 GP, 1μΜ): 91%; viability at 10 µM ([6]; Homo sapiens, IGR-37, 72 h, read-out: cell viability, IGR37 GP, 10μΜ): 93.3%; viability at 1 µM (IGR37 cells (parental); Homo sapiens, IGR-37, 72 h, read-out: cell viability, IGR37 Parental, 1μΜ): 99.2%; viability at 10 µM (IGR37 cells (parental); Homo sapiens, IGR-37, 72 h, read-out: cell viability, IGR37 Parental, 10μΜ): 109%
COc1cc2ncnc(Nc3ccc(F)c(Cl)c3)c2cc1NC(=O)/C=C/CN1CCCCC1 [Dacomitinib (PF299804,PF-00299804)] | 106.7 | -0.4 | 3.4 | 1.3 | 80.1 |  | 0.5 | 96.8 | 1.1 | 97.2 | 1.9 |  | -0.2 | 2.6 |  |  | 1.1 | 94.4 | 
O=C(Nc1cccc(Nc2ncc(Br)c(NCCc3cnc[nH]3)n2)c1)N1CCCC1 [BX-912] |  |  |  |  |  |  |  |  |  |  |  |  |  |  |  |  |  |  | Cell viability in kinase inhibitor library screening, 501Mel GP, 1μΜ ([1]; 501Mel GP, 1μΜ, in %): 99.2; Cell viability in kinase inhibitor library screening, 501Mel GP, 10μΜ ([1]; 501Mel GP, 10μΜ, in %): 59.6; Cell viability in kinase inhibitor library screening, A375 Parental, 10μΜ (A375 cells (parental); A375 Parental, 10μΜ, 72 h): 34.9; Cell viability in kinase inhibitor library screening, A375 Parental, 1μΜ (A375 cells (parental); A375 Parental, 1μΜ, 72 h): 92.0; Cell viability in kinase inhibitor library screening, IGR37 XP, 10μΜ ([2]; IGR37 XP, 10μΜ, 72 h): 16.7%; Cell viability in kinase inhibitor library screening, IGR37 XP, 1μΜ ([2]; IGR37 XP, 1μΜ, 72 h, in %): 94.7; Cell viability in kinase inhibitor library screening, 501Mel Parental, 1μΜ (501Mel cells (parental); 501Mel Parental, 1μΜ, in %): 93.6; Cell viability in kinase inhibitor library screening, 501Mel Parental, 10μΜ (501Mel cells (parental); 501Mel Parental, 10μΜ, in %): 63.6; Cell viability in kinase inhibitor library screening, A375 XP, 1μΜ ([3]; A375 XP, 1μΜ, 72 h): 88.9; Cell viability in kinase inhibitor library screening, A375 XP, 10μΜ ([3]; A375 XP, 10μΜ, 72 h): 36.6; Cell viability in kinase inhibitor library screening, A375 GP, 1μΜ ([4]; A375 GP, 1μΜ, 72 h): 87.6; Cell viability in kinase inhibitor library screening, A375 GP, 10μΜ ([4]; A375 GP, 10μΜ, 72 h): 38.0; Cell viability in kinase inhibitor library screening, 501Mel XP, 1μΜ ([5]; 501Mel XP, 1μΜ, in %): 89.5; Cell viability in kinase inhibitor library screening, 501Mel XP, 10μΜ ([5]; 501Mel XP, 10μΜ, in %): 48.6; Cell viability in kinase inhibitor library screening, IGR37 GP, 10μΜ ([6]; IGR37 GP, 10μΜ, 72 h): 55.1%; Cell viability in kinase inhibitor library screening, IGR37 Parental, 1μΜ (IGR37 cells (parental); [7]): 91.9; Cell viability in kinase inhibitor library screening, IGR37 Parental, 10μΜ (IGR37 cells (parental); [8]): 65.1
C#Cc1cccc(Nc2ncnc3cc(OCCOC)c(OCCO)cc23)c1 [OSI-420 (Desmethyl Erlotinib)] | 106.0 | 79.2 | 54.9 | 45.3 | 83.7 | 109.3 | 100.2 |  | 79.2 | 96.7 | 88.2 | 117.2 | 44.4 | 81.4 | 91.6 | 108.5 | 104.1 |  | 
